The values that follow come from ChEMBL document CHEMBL1201862, “PubChem BioAssay data set” (2004).

Holding throughout (experiment): NCI tumour cell line growth inhibition, 48 h
Assay [1] deals with ACHN.
Assay [2] deals with U-251.
Assay [3] deals with HCC 2998.
Assay [4] deals with NCI-H23.
In assay [5] the test system is DU-145.
Assay [6] has as its system SF-539.
Assay [7] has as its system HOP-92.
The test system of assay [8] is OVCAR-4.
For assay [9], the system named is CCRF-CEM.
In assay [10] the test system is TK-10.
The test system of assay [11] is SN12C.
Assay [12] has as its system 786-0.
For assay [13], the system named is T47D.
Assay [14] deals with HL-60.
For assay [15], the system named is M14.
Assay [16] relates to MDA-MB-435.
Assay [17] has as its system NCI/ADR-RES.
The subject of assay [18] is NCI-H226.
The test system of assay [19] is LOX IMVI.
The subject of assay [20] is UACC-62.

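Following 48 hours of exposure in 96-well plates, responses at five concentrations were used to interpolate endpoints linearly. The concentration for 50% growth inhibition is given as GI50.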 Active and inactive are the calls of the source. No stated cut-off is given here; in the data, active = GI50 up to about 1.1 µM and inactive = higher. Bounds are passed on as bounds.

Consider `CC(C)(C)C(=O)C(C#N)C(=O)C(C)(C)C`, for which the GI50 in assay [1], in assay [2], in assay [3], in assay [4], in [5] and in [6] was > 100 µM (inactive) throughout. Besides, the GI50 in assay [7], in assay [8], in assay [9], in assay [10], in [11] and in [12] was > 100 µM (inactive) in each case. For the same compound, the GI50 in [13], in [14], in assay [15], in [16], in [17] and in assay [18] was > 100 µM (inactive) each time. Moreover, the GI50 in assay [19] was > 100 µM (inactive).

`OC1COC(n2c3ccc(Br)cc3c3ccc4c5ccccc5[nH]c4c32)C(O)C1O` (stereo not drawn): the GI50 in assay [1] is 2.84 µM (inactive); in [2], 5.01 µM (inactive); in assay [3] it was 2.67 µM (inactive); in [20], 0.643 µM (active); in [4], 3.02 µM (inactive); in [5] it was 3.66 µM (inactive). Moreover, the GI50 in [6] is 5.24 µM (inactive); in assay [7] it was 2.54 µM (inactive); in assay [8], 13.5 µM (inactive); in assay [9], 4.72 µM (inactive); in [10], 4.28 µM (inactive); in assay [11] it was 4.84 µM (inactive). Also, the GI50 in assay [12] was 3.96 µM (inactive); in [13] it was 5.21 µM (inactive); in assay [14], 3.48 µM (inactive); in [15] it was 3.12 µM (inactive); in [16], 3.89 µM (inactive); in [17], 4.07 µM (inactive). Further, the values for the GI50 in assay [18] and in assay [19] were 6.76 µM (inactive) and 2.31 µM (inactive), respectively.

As for `CC[C@@H]1CC[C@@H]2[C@H](CC[C@]3(C)[C@@H](O)CC[C@@H]23)[C@H]1C(=O)O`, the GI50 in assay [1], in [2], in assay [3], in assay [20], in assay [4] and in [5] was > 100 µM (inactive) throughout. The GI50 in assay [6], in [7], in [8], in [9], in assay [10] and in [11] was > 100 µM (inactive) throughout. Besides, the GI50 in assay [12], in [13], in assay [14], in [15], in assay [16] and in [17] was > 100 µM (inactive) in each case. In addition, the GI50 in assay [18] and in assay [19] was > 100 µM (inactive) throughout.

As to `C/C=C/C(=O)N1C(=O)OC[C@@H]1c1ccccc1`, the GI50 in assay [1] was 19.1 µM (inactive); in assay [2] it was 23.1 µM (inactive); in assay [3], 23.1 µM (inactive); in assay [4], 17.2 µM (inactive); in assay [5], 20.5 µM (inactive); in assay [6], 21.9 µM (inactive). Further, the GI50 was 20.6 µM (inactive) in assay [7]; 23 µM (inactive) in assay [8]; 23 µM (inactive) in [9]; 17.5 µM (inactive) in assay [10]; 20.5 µM (inactive) in assay [11]; 18.2 µM (inactive) in assay [12]. The GI50 was 16.3 µM (inactive) in assay [13]; 21.9 µM (inactive) in assay [14]; 19.4 µM (inactive) in [15]; 27.4 µM (inactive) in assay [16]; 22.4 µM (inactive) in assay [17]; 22.2 µM (inactive) in assay [18]. The GI50 in [19] was 18.2 µM (inactive).
